From US9884862B2, “Pyridopyrimidinedione derivatives” (Novartis AG, priority 2014, dated 2018) come the findings set out here.

The AC50 is the midpoint of the concentration-response curve, whichever way the signal moves. A high value points to weaker potency.

For one test, the system named is CFTR-Y122X. Nature of the test: CFTR-Y122X assay (dual reporter isogenic Hek293 cell lines, Renilla luminescence readthrough). Particulars: Homo sapiens, HEK293, 24 h, nonsense mutation suppression, 24 h incubation, tested up to 100 μM; for Emax: 100% = 14 mM paromomycin, read-out: Amax. The class given is cell-based. From the text: Activity of compounds of the present invention was examined in recombinant, dual reporter isogenic Hek293 cell lines (“CFTR-Y122X assay”). The engineered reporter constructs contained the 18 bp sequence stretch corresponding to a common Y122X PTC mutation in CFTR class I mutant patients (see Sermet-Gaudelus, BMC Medicine, 2007, 5(5)). Instead of a tyrosine (Y) in position 122 of the CFTR protein a TGA stop codon interrupts the open reading frame (Y122X) of the corresponding mRNA. This TGA stop codon triplet (followed by the pyrimidine base cytosine) is permissive to aminoglycoside mediated translational readthrough which served as positive control for high throughput screening. A corresponding TAA stop codon variant and a wildtype non mutated construct was used for confirmation and counter screening. The CFTR sequence was sandwiched between an eGFP reporter, and a triple myc tag sequence fused to a full length Renilla reporter. All sequences, including an intron containing one positioned pre-eGFP (b-globin intron) were cloned in frame. The corresponding expression constructs were stably expressed in the isogenic HEK-R4 cell host (Invitrogen Incorp.) and selected by blasticidin resistance. The isogenic integration of the construct minimizes gene dose effects and improves assay reproducibility. Stably integrated single cell derived clones were selected and characterized for aminoglycoside mediated readthrough. […] Readthrough of Y122X accumulates an intracellular localized fusion protein approximately 65.5 kDa in size as controlled by western blot analysis and immunofluorescence using an anti-renilla antibody. The eGFP reporter pre-PTC mutation serves as visual control for genetic stability of the screening clones and minimizes protein degradation of small fusion protein amounts. In the assay, compound concentration was 10 μM. In miniaturized 1536 well format 2000 cells were dispensed in 4 μl/well and incubated for 24 h at 37° C., 5% CO2. 40 nl compounds were placed on the cells with control wells containing 1 ul Paramomycin and 14.4 mM final concentration. Compounds were incubated for 24 h. Renilla Glo substrate (2.5 ul) was added and plates were centrifuged and processed for luminescence measurement using various readers. Activity calculation was done using the equation: A1(%)=100*(S−NC)/(AC−NC) where AC, NC and S correspond to active controls (injection of Stimulation buffer=100% stimulation), neutral controls (buffer injection which Iloprost EC10) and screening samples (S). NC corresponds to 0% activity whereas AC is 100% activity (14 mM paromomycin). False positive artifacts were removed in confirmation and validation screening using the same assay format followed by counterscreening using the respective wildtype construct (w/o PTC mutation) cell model. Compounds were tested up to 100 μM compound concentration.

Test [1] relates to alpha-L-Iduronidase W402X in Hurler patient derived fibroblast cells. Briefly: Hurler patient derived fibroblast cell cultures, restored alpha-L-iduronidase activity (W402X readthrough). The class given is cell-based, human. As to conditions: Homo sapiens, Fibroblast, 192 h, 8 days incubation, highest concentration 20 uM; for Emax: 14 mM paromomycin = 100% control, read-out: Amax; for AC50: 8 point dilutions. An excerpt:
Activity of compounds of the present invention was examined in patient derived fibroblast cells. The genotyped cells were derived from the Coriell Institute (# GM00798) and contain an in frame homozygous TGG to TAG change at nucleotide 1293 of exon 9 which results in a W402X mutation. The W402X mutation is one of the most common Hurler syndromes causing loss of function mutation. Between 60-70% of genotyped patients contain either the Q70X and/or the W402X in mutation and are classified as severe MPSI patients. This TAG stop codon triplet is permissive to aminoglycoside mediated translational readthrough which served as activity control for compound testing. Readthrough of W402X restores alpha-L-Iduronidase activity which results in removal of lysosomal accumulated Glycosaminoglycan's. Iduronidase expression could neither be detected by Taqman PCR© nor by enzyme activity or ELISA methods without compound stimulation. Compounds were tested in concentration response mode. Therefore 5000 patient cells/40 ul/well in 384 well plates were used. Compound dilutions were derived from freshly prepared 10 mM compound stock solutions. Highest concentration was 20 uM and subsequently diluted 1: 3.16 (8 point dilutions, n=4). Final DMSO concentration was below 0.5% and tested to be without effect on cell viability, growth and readthrough. Cells were incubated for 8 days with one cell media and compound exchange at day 3. Thereafter cell media was removed and cells were lysed (0.4 M Sodiumformate, 0.1% NaN3, 0.9% NaCl, 0.2% Triton, pH 3.5). Restored alpha-L-iduronidase activity in cell lysates was measured with the fluorescent 4-MU iduronide substrate (5 ul of 0.4 mM 4 Methylumbelliferyl alpha-L-iduronide/well) after 48 h incubation. Paromomycin was used as reference control (14 mM=100% control).

With `Cn1c2cc(Cl)sc2c(=O)c2c(=O)n(-c3ccccc3)c(C3CCC3)nc21` [Example 2.17, 7-chloro-2-cyclobutyl-9-methyl-3-phenylthieno[2′,3′:5,6]pyrido[2,3-d]pyrimidine-4,5(3H,9H)-dione], in the test with CFTR-Y122X, the Emax worked out at 151% and the activity was half-maximal at 4 µM (AC50). Further, in test [1], the Emax worked out at 128% and half-maximal activity (AC50) was put at 10 µM.
With `Cn1c2nc(C3CCC3)n(-c3ccccc3)c(=O)c2c(=O)c2cc(Cl)sc21` [Example 2.18, 7-chloro-2-cyclobutyl-9-methyl-3-phenylthieno[3′,2′:5,6]pyrido[2,3-d]pyrimidine-4,5(3H,9H)-dione], in the test with CFTR-Y122X, the Emax was 154% and half-maximal activity (AC50) was put at 3.3 µM. In test [1], the Emax is 200% and the concentration at half-maximal activity (AC50) was 11 µM.
